Ends that are not written are not given here.
How the values were obtained:
Candida albicans = test system: Candida albicans
Procedure: (§1) Minimal inhibitory concentration (MIC) determination. The MICs of the peptides were measured using a modified broth microdilution method in Mueller Hinton (MH) medium. Wu et al., J. Biol. Chem. 274: 29-35, 1999. Briefly, the peptides were dissolved and stored in glass vials. The assay was performed in sterile 96-well polypropylene microtitre plates were used. Serial dilutions of the peptides to be assayed were performed in 0.01% acetic acid (Fisher) containing 0.2% bovine serum albumin (Boehringer Mannheim GmbH) at 10× the desired final concentration. Ten microlitres of the 10× peptides were added to each well of a 96-well polypropylene plate containing 90 μl of MH media per well. Bacteria were added to the plate from an overnight culture at 2-7×10^5 colony forming units/ml and incubated over night at 37° C. The MIC was taken as the concentration at which no growth was observed.
(§2) Strains. For the killing assay a mini-Tn5-lux mutant in Pseudomonas aeruginosa H103 was used. The strain is called H1001 and contains a fliC::luxCDABE transcriptional fusion resulting in constitutive expression of luciferase. The bacterial strains used for the antimicrobial activity assays included Escherichia coli UB1005 (F-, nalA37, metB1), a wild-type Salmonella enterica ssp. Typhimurium (S. Typhimurium), wild-type Pseudomonas aeruginosa PAO1 strain H103, Enterococcus faecalis ATCC29212, Staphylococcus aureus ATCC25923, and a clinical isolate of Staphylococcus epidermidis obtained from Dr. D. Speert (Department of Medicine, University of British Columbia). Antifungal activity was tested using a lab isolate of Candida albicans obtained from Dr. B. Dill (Department of Microbiology and Immunology, University of British Columbia).
(§3) In addition, the parent peptide Bac2A was included in these studies as a standard. The minimal inhibitory concentrations (MIC) were determined for the important medical pathogens Pseudomonas aeruginosa, Escherichia coli, Salmonella typhimurium, Staphylococcus aureus, Staphylococcus epidermidis, Enterococcus faecaelis, and the yeast Candida albicans in Mueller-Hinton media.

[1] = test system: Enterococcus faecalis ATCC29212; conditions: ATCC29212
Procedure: as §1, §2, §3

[2] = test system: Pseudomonas aeruginosa PAO1 strain H103; conditions: PAO1
Procedure: as §1, §2, §3

[3] = test system: Salmonella enterica ssp. Typhimurium; conditions: ssp. Typhimurium
Procedure: as §1, §2, §3

[4] = test system: Staphylococcus aureus ATCC25923; conditions: ATCC25923
Procedure: as §1, §2, §3

[5] = test system: Staphylococcus epidermidis
Procedure: as §1, §2, §3

MIC C. albicans (Candida albicans)	MIC E. faecalis [1]	MIC P. aerug [2]	MIC S. Typhim. [3]	MIC S. aureus [4]	MIC S. epi. [5]	Substance
125 µg/mL	31 µg/mL	125 µg/mL	63 µg/mL	63 µg/mL	16 µg/mL	GLARIVVIRVAR-NH2 (C-terminus assumed) [Bac206]
16 µg/mL	16 µg/mL	16 µg/mL	31 µg/mL	16 µg/mL	4 µg/mL	KIWVIRWR-NH2 (C-terminus assumed) [Bac434]
83 µg/mL	46 µg/mL	83 µg/mL	>83 µg/mL	83 µg/mL	11 µg/mL	LARIVVIRVAR-NH2 (C-terminus assumed) [Bac102]
16 µg/mL	31 µg/mL	31 µg/mL	31 µg/mL	31 µg/mL	16 µg/mL	RGARIVVIRVAR-NH2 (C-terminus assumed) [Bac225]
16 µg/mL	8 µg/mL	16 µg/mL	16 µg/mL	4 µg/mL	4 µg/mL	RIWVIRWR-NH2 (C-terminus assumed) [Bac435]
8 µg/mL	2 µg/mL	8 µg/mL	8 µg/mL	2 µg/mL	2 µg/mL	RIWVIWRR-NH2 (C-terminus assumed) [Bac436]
31 µg/mL	125 µg/mL	31 µg/mL	63 µg/mL	125 µg/mL	31 µg/mL	RLARIVKIRVAR-NH2 (C-terminus assumed) [Bac323]
>250 µg/mL	>250 µg/mL	>250 µg/mL	>250 µg/mL	>250 µg/mL	>250 µg/mL	RLARIVVFRVAR-NH2 (C-terminus assumed) [Bac338]
23 µg/mL	23 µg/mL	46 µg/mL	46 µg/mL	46 µg/mL	11 µg/mL	RLARIVVIRV-NH2 (C-terminus assumed) [Bac103]
63 µg/mL	31 µg/mL	63 µg/mL	31 µg/mL	63 µg/mL	16 µg/mL	RLARIVVIRVA-NH2 (C-terminus assumed) [Bac101]
